# Reference: PMC7812606 (ACS Medicinal Chemistry Letters, 2020)
# “Also recorded” adds a separate entry of the source.
# Legend:
# In vivo brain exposure = details: mice
# [1] = test system: APP^T668 phosphorylation in primary neurons; assay: Cell-based inhibition of APP T668 phosphorylation; details: concentration as low as 10 nM
# [2] = biological target: panel of ∼374 wild-type kinases; assay: Kinase panel profiling, overall; type: biochemical; details: 17 and 25 at 5 μM, 27 at 10 μM
# JNK2 = JNK2 (Homo sapiens, UniProt P45984); type: biochemical; details: isoform selectivity, fold
# JNK3 = JNK3 (Homo sapiens, UniProt P53779); type: biochemical; details: JNK3 or JNK1
# JNK3, sequence (P53779 whole entry): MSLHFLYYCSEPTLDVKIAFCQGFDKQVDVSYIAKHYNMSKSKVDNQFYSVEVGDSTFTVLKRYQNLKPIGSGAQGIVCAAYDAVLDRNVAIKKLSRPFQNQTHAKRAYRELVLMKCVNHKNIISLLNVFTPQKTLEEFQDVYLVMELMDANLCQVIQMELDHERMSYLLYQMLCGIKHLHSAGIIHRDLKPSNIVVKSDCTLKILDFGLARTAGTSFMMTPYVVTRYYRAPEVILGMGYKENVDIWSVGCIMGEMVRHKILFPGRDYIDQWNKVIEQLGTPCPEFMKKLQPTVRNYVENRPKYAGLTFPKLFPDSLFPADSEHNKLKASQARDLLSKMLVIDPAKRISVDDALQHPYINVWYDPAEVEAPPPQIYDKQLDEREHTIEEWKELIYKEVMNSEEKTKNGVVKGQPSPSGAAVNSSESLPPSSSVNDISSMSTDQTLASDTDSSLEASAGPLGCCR
# JNK2, sequence (P45984 whole entry, canonical isoform): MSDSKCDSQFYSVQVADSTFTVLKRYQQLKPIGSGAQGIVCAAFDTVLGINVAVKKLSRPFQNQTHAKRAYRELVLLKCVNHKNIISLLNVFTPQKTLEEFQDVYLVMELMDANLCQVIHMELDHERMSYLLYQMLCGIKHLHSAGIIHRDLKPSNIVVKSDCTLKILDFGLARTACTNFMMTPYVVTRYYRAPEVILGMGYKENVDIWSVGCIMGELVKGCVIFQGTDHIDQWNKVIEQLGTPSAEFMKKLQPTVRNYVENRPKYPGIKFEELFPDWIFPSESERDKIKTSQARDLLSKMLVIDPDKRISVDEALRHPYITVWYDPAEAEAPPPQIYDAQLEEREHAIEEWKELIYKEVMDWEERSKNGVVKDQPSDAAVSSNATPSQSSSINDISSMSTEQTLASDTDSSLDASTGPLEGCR
kinases with significant inhibition (>80% inhibition) in panel [2],SMILES,inhibition of phosphorylation of residue T668 of APP [1],other results
–,O=C(Nc1cnn(-c2csc(C(=O)N[C@@H]3CCOC3)c2)c1)Nc1ccccc1Cl [Compound 16],–,R: ratio of IC50 values for JNK2 over JNK3 (JNK2): > 250
–,O=C(Nc1cnn(-c2nc(C(=O)NC3CNC3)cs2)c1)Nc1ccccc1Cl [Compound 3],–,inhibition of JNK3 and JNK1 in words (JNK3): no inhibitions
–,O=C(Nc1cnn(-c2csc(C(=O)NC3COC3)c2)c1)Nc1ccc(F)cc1Cl [Compound 26],significantly inhibited,–
against only JNK3,Cc1sc(C(=O)NC2COC2)cc1-n1cc(NC(=O)Nc2c(F)cccc2Cl)cn1 [Compound 27],–,–
–,Cc1sc(C(=O)N[C@@H]2CCOC2)cc1-n1cc(NC(=O)Nc2c(F)cccc2Cl)cn1 [Compound 28],significantly inhibited,–
against only JNK3,O=C(Nc1cnn(-c2csc(C(=O)NC3COC3)c2)c1)Nc1c(F)cccc1Cl [Compound 25],–,–

SMILES,kinases with significant inhibition (>80% inhibition) in panel [2],inhibition of phosphorylation of residue T668 of APP [1],other results
O=C(Nc1cnn(-c2csc(C(=O)NC3COC3)c2)c1)Nc1ccccc1Cl [Compound 17],significant inhibition to only JNK3; also recorded: against only JNK3,significantly inhibited,"brain penetration (In vivo brain exposure; po dosing): brain penetrant; oral bioavailability (In vivo brain exposure; po dosing): has oral bioavailability; brain concentration (In vivo brain exposure; po, 10 mg/kg, 1 h after dosing): 1080 nM; plasma concentration (In vivo brain exposure; po, 10 mg/kg, 1 h after dosing): 960 nM"
